Consider four compounds from patent publication US20250025460A1, “USE OF A COMBINATION OF LEVOSIMENDAN AND AN SGLT-2 INHIBITOR TO TREAT HEART FAILURE” (Tenax Therapeutics, Inc., priority 2021, published 2025).

The conditions of data set [1]: follow-ups two weeks after treatment with levosimendan; cited from earlier work.
The conditions of data set [2]: in vivo; cited from earlier work.
The subject of data set [3] is phosphodiesterase-3 (PDE3). To be noted: cited from earlier work.
Another data set deals with PDE4. The following applies: cited from earlier work.
For data set [4], the system named is whole cardiomyocytes and isolated contractile apparatus preparations. To be noted: cited from earlier work.
The next data set concerns heart failure patients. The following applies: cited from earlier work.
For another data set, the system named is PH-HFpEF patient. Nature of the data set: HELP Study: rest and exercise right heart catheterization after 24-hour i.v. levosimendan, Patient 019-002. Type of data set: in vivo, human. The following applies: single 24-hour open label lead-in infusion. As for the experimental part:
(§1) During the HELP Study, as described in PCT International Application Publication No. WO 2021/126884, the entire contents of which are incorporated by reference, Patient 019-002 was administered empagliflozin shortly after beginning levosimendan therapy.
Specifically, Patient 019-002 had established PH-HFpEF and was initially enrolled into the HELP Trial. The diagnosis of PH-HFpEF was confirmed by rest and exercise right heart catheterization. […] The PCWP of 35 mmHg at rest increased with exercise to 55 mmHg at baseline. […] Thus, levosimendan produced a 40% fall in resting PCWP and a 33% fall in exercise PCWP. In addition, at baseline the CVP was 18 mmHg and increased to 30 mmHg with exercise. Following the 24 hours of i.v. levosimendan the CVP fell to 12 mmHg at rest and to 21 mmHg with exercise. Thus, levosimendan produced a 33% fall in resting CVP, and a 30% fall in CVP with exercise. Accordingly, the response of Patient 019-002 to levosimendan treatment was typical of other patients in the study in terms of improvements to their hemodynamic profile (FIG. 1).

In the next data set the test system is PH-HFpEF patients. In words: HELP Study: 6-minute walk distance. Type of data set: in vivo, human. To be noted: PH-HFpEF patients of the HELP Study, on average, levosimendan alone. As for the experimental part:
6 MWT is the abbreviation for six-minute walk test. 6 MWT is a performance-based test used to measure functional exercise capacity. The 6 MWT measures the distance an individual is able to walk over a total of 6 minutes at a constant and normal pace. (Vandoni et al. 2018)
as §1

The conditions of data set [5]: cited from earlier work.

On to `C[C@@H]1CC(=O)NN=C1c1ccc(N)cc1` [OR-1855, (R)-6-(4-aminophenyl)-5-methyl-4,5-dihydropyridazin-3(2H)-one], for which the “concentrations of metabolite at follow-up” value in [1] was “detectable”. Moreover, the “hemodynamic and pharmacologic properties / activity compared with levosimendan” value in data set [2] was “limited activity”.

On to `CC(=O)Nc1ccc(C2=NNC(=O)C[C@H]2C)cc1` [OR-1896, (R)-N-(4-(4-methyl-6-oxo-1,4,5,6-tetrahydropyridazin-3-yl)phenyl) acetamide], for which, in [3], the “potency in the inhibition of PDE3 compared with levosimendan” value is on record as “profoundly less potent”. In addition, the “potency in the inhibition of PDE4 compared with levosimendan” value in the data set with PDE4 is “profoundly less potent”. The “inotropic effects, potency compared with levosimendan” value in data set [4] was “equipotent”. In data set [1], the “concentrations of metabolite at follow-up” value is recorded as “detectable”. The “hemodynamic and pharmacologic properties / activity compared with levosimendan” value in [2] is “similar”.

As to `OC[C@H]1O[C@@H](c2ccc(Cl)c(Cc3ccc(O[C@H]4CCOC4)cc3)c2)[C@H](O)[C@@H](O)[C@@H]1O` [empagliflozin], the “6-minute walk distance or quality of life” value in the data set on heart failure patients (EMBRACE HF, PH-HFpEF patients, empagliflozin alone) is recorded as “did not demonstrate a meaningful difference”. Besides, in the data set with heart failure patients (EMPERIAL-Preserved and EMPERIAL-Reduced trials, empagliflozin alone), the “exercise capacity as measured by change in six-minute walk distance” value is listed as “neither of these trials showed an improvement”. For the same compound, in the data set on heart failure patients (HFpEF, HFrEF or PH-HFpEF patients, empagliflozin alone (EMPERIAL-Preserved, EMPERIAL-Reduced, EMBRACE HF)), the “exercise capacity as measured by a difference in 6 MWD” value is “did not demonstrate a material change”.

Turning to `C[C@@H]1CC(=O)NN=C1c1ccc(NN=C(C#N)C#N)cc1` [levosimendan], in the data set on PH-HFpEF patient, the “change in pulmonary capillary wedge pressure (PCWP), FIG. 1” value is reported as “decrease”. Besides, the “improvement of 6-minute walk distance” value in the data set with PH-HFpEF patients is recorded as “approximately 29 m”. Besides, the “plasma concentration profile of the levosimendan metabolite OR-1896” value in [5] (subcutaneous compared with intravenous administration of levosimendan) is listed as “similar”. Besides, the “plasma concentrations of levosimendan” value in data set [5] (subcutaneous compared with intravenous administration) is “lower plasma concentrations”.
